Test results reported in publication PMC9704608, “Anti-leishmanial physalins—Phytochemical investigation, in vitro evaluation against clinical and MIL-resistant L. tropica strains and in silico studies” (PLOS ONE, 2022).
Like-named read-outs stand apart in the source and are kept apart here.

Assays:
[1] = Cytotoxicity (MTT) against BJ cell line; format: cell-based, human; conditions: pure compounds, human fibroblast, 48 h, read-out: BJ cell line CC50 (μM± SD)
Experimental: (§1) The cytotoxicity of the test compounds against normal cell lines was evaluated through MTT (3-[4, 5-dimethylthiazole-2-yl]-2, 5-diphenyl-tetrazolium bromide] colorimetric assay in 96-well flat-bottomed microplates. The 3T3 (mouse fibroblast) and BJ (human fibroblast) were cultured Dulbecco’s Modified Eagle Medium, supplemented with 5% of fetal bovine serum (FBS), 100 IU/mL of penicillin and 100 μg/mL of streptomycin in 75 cm2 flasks, and then incubated in 5% CO2 incubator at 37°C. The growing cells were counted by using a haemocytometer, and diluted with the particular medium. The 5x10^4 cells/mL of the cell culture was prepared, and a sample […] was introduced into each well. […] After 48 hours, 200 μL MTT (0.5 mg/mL) was added, and the incubation was further continued for 4 hrs. After that time, 100 μL of DMSO was added to each well. The absorbance was measured using a micro plate reader (Spectra Max Plus, Molecular Devices, CA, USA) at 570 nm for the extent of MTT reduction to formazan within the cells. The cytotoxicity was recorded as CC50 against cells by using Soft- Max Pro software. Doxorubicin and cycloheximide were used as positive control. The experiments were run in triplicate.

[2] = system: BJ (human fibroblast) cells; test: Cytotoxicity (MTT) against BJ cell line; format: cell-based; conditions: for L. major SI (CC50/ IC50): CC50 BJ cell line / IC50 L. major; for IC50: Homo sapiens, Fibroblast, read-out: BJ (human fibroblast) IC50 (μM± SD); for L. tropica SI (CC50/ IC50): CC50 BJ cell line / IC50 L. tropica; for BJ cell line CC50 (μM± SD): pure compounds, human fibroblast, 48 h
Experimental: as §1

[3] = system: MIL-resistant L. tropica promastigotes; test: Growth inhibition assay (MTT) against MIL-resistant line; format: cell-based, Leishmania tropica; conditions: 72 h; for MIL Resistant L. tropica IC50 (μM± SD): miltefosine-unresponsive strain, promastigotes; for IC50: Leishmania tropica, read-out: MIL Resistant L. tropica IC50 (μM± SD)
Experimental: (§2) The promastigotes in their log phase were used in 96-well plates. 1 × 10^6 wild-type and resistant promastigotes were dispensed in 96 96-well plates, and incubated with tested compounds at a range concentration of 200–10 μM at 27°C for 72 h. After incubation of 72 h, MTT dye (3-(4,5-dimethylthiazol-2-yl)-2,5-diphenyl-2H-tetrazolium bromide) was added and further incubate it for 3–4 h. Amphotericin B, pantamidine and miltefosine were used as the positive control, untreated promastigotes were used as negative control moreover DMSO control was also added in the study as a stock solution of the compounds that were prepared in DMSO. All the experiments were performed in triplicates. After completion of the experiment the absorbance by Multiskan ascent plate reader at 452 nm and percent inhibition was calculated by the following formula.
(§3) Cytotoxic concentration (%) = [100- (Absorbance of test)/ (Absorbance of solvent control) ×100] %.
Promastigote cultures tL. tropica (Clinical isolates) were maintained at 26°C in RPMI-1640 medium containing 15% FBS and 1% penicillin–streptomycin mixture.
Generation of miltefosine-unresponsive strain was carried under high MIL pressure by in vitro passage with a stepwise increase in the MIL concentration. At each step, parasites were cultured and passaged every 3–4 days at an initial concentration of 5x10^5 promastigotes/mL in order to achieve -stable growth as compared to the wildtype isolate. Growth rates were measured for resistant populations and compared with the WT strain. Parasites were counted at an initial concentration of 5x10^5 parasites/mL and growth was measured daily using a Neubauer chamber until the population reached the stationary phase. Furthermore, the fluorescence microscopic investigations via DAPI stain were also carried out to supplement the study.

[4] = system: L. major promastigotes; test: Promastigote growth inhibition assay (MTT), L. major; format: cell-based, Leishmania major; conditions: for IC50: Leishmania major; for IC50 / L. major IC50 (μM± SD): 72 h; for anti-leishmanial activity against promastigotes of L. major (in words): in vitro
Experimental: (§4) L. major and L. tropica (Clinical isolates) promastigotes were grown at […] in RPMI-1640 (Sigma) medium containing 10% of heat-inactivated (56°C for 30 min) fetal bovine serum. Cell viability was initially evaluated by wet mount method by observing the live cells under compound microscope. Parasite growth was assessed by counting live / motile promastigotes in a Neubauer chamber. Viable cell count was used for the further experimentations (treatments).
as §2, §3

[5] = Cytotoxicity (MTT) against 3T3 cell line; format: cell-based, mouse; conditions: pure compounds; mouse fibroblast, 48 h; read-out: 3T3 Cell line CC50 (μM± SD)
Experimental: (§5) The cytotoxicity of the test compounds against normal cell lines was evaluated through MTT (3-[4, 5-dimethylthiazole-2-yl]-2, 5-diphenyl-tetrazolium bromide] colorimetric assay in 96-well flat-bottomed microplates. The 3T3 (mouse fibroblast) and BJ (human fibroblast) were cultured Dulbecco’s Modified Eagle Medium, supplemented with 5% of fetal bovine serum (FBS), 100 IU/mL of penicillin and 100 μg/mL of streptomycin in 75 cm2 flasks, and then incubated in 5% CO2 incubator at 37°C. The growing cells were counted by using a haemocytometer, and diluted with the particular medium. The 5x10^4 cells/mL of the cell culture was prepared, and a sample […] was introduced into each well. The medium was removed after overnight incubation, and 200 μL of fresh medium was added with different concentrations of compounds (1–30 μM). After 48 hours, 200 μL MTT (0.5 mg/mL) was added, and the incubation was further continued for 4 hrs. After that time, 100 μL of DMSO was added to each well. The absorbance was measured using a micro plate reader (Spectra Max Plus, Molecular Devices, CA, USA) at 570 nm for the extent of MTT reduction to formazan within the cells. The cytotoxicity was recorded as CC50 against cells by using Soft- Max Pro software. Doxorubicin and cycloheximide were used as positive control. The experiments were run in triplicate.

[6] = system: 3T3 (mouse fibroblast) cells; test: Cytotoxicity (MTT) against 3T3 cell line; format: cell-based; conditions: for IC50: Mus musculus, Fibroblast, read-out: 3T3 (mouse fibroblast) IC50 (μM ± SD); for 3T3 Cell line CC50 (μM± SD): pure compounds, mouse fibroblast, 48 h
Experimental: as §5

[7] = system: L. tropica promastigotes; test: Promastigote growth inhibition assay (MTT), L. tropica clinical isolates; format: cell-based, Leishmania tropica; conditions: for IC50: Leishmania tropica; for IC50 / L. tropica IC50 (μM± SD): 72 h
Experimental: as §4, §2, §3

[8] = CC50 3T3 mouse fibroblast cell line / IC50 L. major
[9] = CC50 BJ fibroblast cell line / IC50 L. major
[10] = pure compounds, standard drugs, promastigotes, read-out: L. major IC50 (μM± SD)
[11] = CC50 BJ fibroblast cell line / IC50 L. tropica
[12] = pure compounds, standard drugs, promastigotes, clinical isolate, read-out: L. tropica IC50 (μM± SD)
[13] = read-out: L. major IC50 (μM± SD)
[14] = read-out: L. tropica IC50 (μM± SD)
[15] = extracts, fractions, standard drugs, promastigotes, read-out: L. major IC50 (μg/ml ± SD)
[16] = extracts, fractions, standard drugs, promastigotes, read-out: L. tropica IC50 (μg/ml ± SD)
[17] = pure compounds, standard drugs, promastigotes
[18] = pure compounds, standard drugs, promastigotes, clinical isolate

Structure (SMILES) | CC50 [1] | MIL Resistant L. tropica IC50 (μM± SD) [3] | L. major SI (CC50/ IC50) [4, 9] | IC50 [4, 10] | anti-leishmanial activity against promastigotes of L. major (in words) [4] | L. tropica SI (CC50/ IC50) [7, 11] | IC50 [7, 12] | CC50 at 48 h [1] | IC50 [7, 14] | IC50 [4, 15] | IC50 [7, 16] | L. major IC50 (μM± SD) [4, 17] | L. tropica IC50 (μM± SD) [7, 18] | BJ (human fibroblast) IC50 (μM± SD) ([2]; cytotoxicity of compounds 1-9) | 3T3 (mouse fibroblast) IC50 (μM ± SD) ([6]; cytotoxicity of compounds 1-9) | 3T3 Cell line CC50 (μM± SD) [6] | further results
C=C1C(=O)OC2CC1(C)C1C(=O)C3(O)OC14C(O)(CCC1C3CC3OC35CC=CC(=O)C15C)C(=O)OC24C (stereo not drawn) [Compound 6, 5β, 6β-epoxyphysalin C] | > 100 µM | inactive | 1.19 | 84.8 ± 1.56 µM | no significant activity | 4.20 | 23.8 ± 1.1 µM | – | – | – | – | – | – | – | – | – | L. major SI (CC50/ IC50) [2]: 1.19; IC50 ([2]; cytotoxicity of compounds 1-9): 10.4 ± 1 µM; L. major SI (CC50/ IC50) [4, 8]: 0.007; CC50 [5]: 0.6 ± 0.04 µM; L. tropica SI (CC50/ IC50) ([6]; CC50 3T3 cell line / IC50 L. tropica): 0.025; IC50 ([6]; cytotoxicity of compounds 1-9): 0.6 ± 0.04 µM; L. tropica SI (CC50/ IC50) ([7]; CC50 3T3 mouse fibroblast cell line / IC50 L. tropica): 0.025
C[C@]12C(=O)C=CCC1=CC[C@@H]1[C@@H]2CC[C@]2(O)C(=O)O[C@@]3(C)[C@H]4C[C@]5(C)[C@@H](CO[C@@]16O[C@@]32[C@H]5C6=O)C(=O)O4 [Compound 2, Physalin B] | – | inactive | 3.5 | – | – | 0.8 | – | 10.8 ± 1.5 µM | 13.33 ± 0.098 µM | – | – | – | – | – | – | – | L. major SI (CC50/ IC50) [2]: 3.5; L. tropica SI (CC50/ IC50) [2]: 0.8; IC50 [2]: 27.6 ± 0.9 µM; L. major SI (CC50/ IC50) [4, 8]: 3.28; IC50 [4, 13]: 3.04 ± 1.12 µM; CC50 at 48 h [5]: 10 ± 0.4 µM; IC50 [6]: 10 ± 0.4 µM
C[C@@H]1[C@H](O)[C@@H](C)/C=C/C=C/C=C/C=C/C=C/C=C/C=C/[C@H](O[C@@H]2O[C@H](C)[C@@H](O)[C@H](N)[C@@H]2O)C[C@@H]2O[C@](O)(C[C@@H](O)C[C@@H](O)[C@H](O)CC[C@@H](O)C[C@@H](O)CC(=O)O[C@H]1C)C[C@H](O)[C@H]2C(=O)O [Amphotericin B, reference compound] | – | – | 4.37 | 3.39 ± 0.043 µM | – | 4.69 | 3.42 ± 0.04 µM | – | – | 3.14 ± 0.04 µg/mL | 3.16 ± 0.04 µg/mL | – | – | – | – | – | CC50 at 48 h ([1]; BJ fibroblast cells): 16.1 µM; L. tropica SI (CC50/ IC50) [2]: 4.69
CCOC12CC=CC(=O)C1(C)C1CCC3(O)C(=O)OC4(C)C5CC6(C)C(COC7(OC34C6C7=O)C1CC2O)C(=O)O5 (stereo not drawn) [Compound 4, 5α-ethoxy-6ß-hydroxy-5,6-dihydrophysalin B] | 14.2 ± 0.8 µM | – | – | – | no significant activity | – | – | – | – | – | – | Inactive | Inactive | – | – | – | IC50 ([2]; cytotoxicity of compounds 1-9): < 50 µM; IC50 [3]: 74.7 ± 0.81 µM; CC50 [5]: 19.6 ± 0.8 µM; IC50 ([6]; cytotoxicity of compounds 1-9): 19.6 ± 0.8 µM
C[C@]12C(=O)C=CC=C1[C@@H](O)C[C@@H]1[C@@H]2CC[C@@]2(O)C(=O)O[C@@]3(C)[C@H]4C[C@]5(C)[C@@H](CO[C@@]16O[C@]23[C@H]5C6=O)C(=O)O4 [Compound 7, Physalin G] | – | – | – | – | no significant activity | – | – | > 100 µM | 19.49 ± 0.02 µM | – | – | – | – | Non cytotoxic | Non cytotoxic | Non cytotoxic | IC50 [3]: 39.4 ± 0.65 µM; IC50 [4, 13]: 52.3 ± 1.18 µM
CCCCCCCCCCCCCCCCOP(=O)([O-])OCC[N+](C)(C)C [Miltefosine, reference compound] | – | – | – | 25.6 ± 1.03 µM | – | – | 42.8 ± 1.03 µM | – | – | 10.4 ± 0.42 µg/mL | 17.4 ± 0.42 µg/mL | – | – | – | – | – | BJ cell line CC50 (μM± SD) [2]: non-toxic
CC12CC3OC(=O)C1COC14OC5(C2C1=O)C(O)(CC(O)C1C4CC(O)C24C=CC(OO2)C(=O)C14C)C(=O)OC35C (stereo not drawn) [Compound 8, Physalin K] | > 100 µM | inactive | – | – | no significant activity | – | – | – | – | – | – | inactive | inactive | Non cytotoxic | Non cytotoxic | Non cytotoxic | –
C[C@@]12C[C@H]3OC(=O)[C@@H]1CO[C@@]14O[C@]5([C@H]2C1=O)[C@@](O)(CC[C@H]1[C@H]4C[C@@H](O)[C@@]2(O)CC=CC(=O)[C@]12C)C(=O)O[C@@]35C [Compound 9, Physalin D] | – | inactive | – | – | no significant activity | – | – | > 100 µM | 55.24 ± 0.01 µM | – | – | inactive | – | Non cytotoxic | Non cytotoxic | Non cytotoxic | –
CC12C(=O)C=CC=C1C(O)CC1C(=O)C3=NCC4C(=O)OC5CC4(C)C3C3(O)C(O)(CCC12)C(=O)OC53C (stereo not drawn) [Compound 1, Aminophysalin B] | – | – | – | – | no significant activity | – | – | – | – | – | – | Inactive | Inactive | Non cytotoxic | Non cytotoxic | – | BJ cell line CC50 (μM± SD) [2]: Non cytotoxic
N=C(N)c1ccc(OCCCCCOc2ccc(C(=N)N)cc2)cc1 [Pentamidine, reference compound] | – | – | – | 27.2 ± 0.015 µM | – | – | 27.2 ± 0.01 µM | – | – | 9.25 ± 0.005 µg/mL | 9.25 ± 0.005 µg/mL | – | – | – | – | – | –
